Laboratory results from ChEMBL document CHEMBL4507299, “Data for DCP probe PF-04554878” (2021).

Key:
[1] = tested on: Tyrosine-protein kinase ABL1 (Homo sapiens), P00519 [M351T]
[2] = molecular target: Atypical kinase COQ8B, mitochondrial (Homo sapiens) (UniProt Q96D53)
[3] = molecular target: Casein kinase I isoform gamma-1 (Homo sapiens) (UniProt Q9HCP0)
[4] = tested on: Tyrosine-protein kinase ABL1 (Homo sapiens), P00519 [Y253F]
[5] = molecular target: Death-associated protein kinase 3 (Homo sapiens) (UniProt O43293)
Sequence of Death-associated protein kinase 3 (Homo sapiens) (O43293 whole entry, looked up): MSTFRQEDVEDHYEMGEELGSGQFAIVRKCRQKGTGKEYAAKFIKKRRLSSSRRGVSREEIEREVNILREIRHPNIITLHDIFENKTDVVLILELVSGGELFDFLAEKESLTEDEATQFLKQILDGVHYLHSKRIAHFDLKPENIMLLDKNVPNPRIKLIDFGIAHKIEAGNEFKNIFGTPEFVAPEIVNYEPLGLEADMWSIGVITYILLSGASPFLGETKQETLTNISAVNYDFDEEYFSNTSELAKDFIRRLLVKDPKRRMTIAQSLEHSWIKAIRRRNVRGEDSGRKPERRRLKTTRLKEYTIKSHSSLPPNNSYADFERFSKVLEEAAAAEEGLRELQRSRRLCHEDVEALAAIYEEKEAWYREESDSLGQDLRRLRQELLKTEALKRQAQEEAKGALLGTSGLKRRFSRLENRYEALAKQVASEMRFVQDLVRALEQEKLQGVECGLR

[6] = molecular target: Tyrosine-protein kinase FRK (Homo sapiens) (UniProt P42685)
[7] = molecular target: Ribosomal protein S6 kinase alpha-3 (Homo sapiens) (UniProt P51812)
[8] = molecular target: T1, Aurora kinase A (Homo sapiens) (UniProt O14965)
T1 sequence (whole entry): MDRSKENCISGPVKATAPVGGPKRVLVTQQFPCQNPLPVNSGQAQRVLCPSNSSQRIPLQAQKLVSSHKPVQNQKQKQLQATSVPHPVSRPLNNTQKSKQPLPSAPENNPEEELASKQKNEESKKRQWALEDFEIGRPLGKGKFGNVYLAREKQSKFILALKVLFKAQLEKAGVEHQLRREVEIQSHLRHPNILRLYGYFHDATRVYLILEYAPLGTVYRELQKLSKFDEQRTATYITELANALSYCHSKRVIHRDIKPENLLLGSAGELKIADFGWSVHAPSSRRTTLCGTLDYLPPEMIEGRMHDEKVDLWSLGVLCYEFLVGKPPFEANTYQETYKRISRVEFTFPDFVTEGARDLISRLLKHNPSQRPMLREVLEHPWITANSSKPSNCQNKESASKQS

[9] = tested on: Epidermal growth factor receptor (Homo sapiens), P00533 [L858R,T790M]
[10] = tested on: Proto-oncogene tyrosine-protein kinase receptor Ret (Homo sapiens), P07949 [V804L]
Sequence of Proto-oncogene tyrosine-protein kinase receptor Ret (Homo sapiens), P07949 [V804L] (P07949 whole entry V804L): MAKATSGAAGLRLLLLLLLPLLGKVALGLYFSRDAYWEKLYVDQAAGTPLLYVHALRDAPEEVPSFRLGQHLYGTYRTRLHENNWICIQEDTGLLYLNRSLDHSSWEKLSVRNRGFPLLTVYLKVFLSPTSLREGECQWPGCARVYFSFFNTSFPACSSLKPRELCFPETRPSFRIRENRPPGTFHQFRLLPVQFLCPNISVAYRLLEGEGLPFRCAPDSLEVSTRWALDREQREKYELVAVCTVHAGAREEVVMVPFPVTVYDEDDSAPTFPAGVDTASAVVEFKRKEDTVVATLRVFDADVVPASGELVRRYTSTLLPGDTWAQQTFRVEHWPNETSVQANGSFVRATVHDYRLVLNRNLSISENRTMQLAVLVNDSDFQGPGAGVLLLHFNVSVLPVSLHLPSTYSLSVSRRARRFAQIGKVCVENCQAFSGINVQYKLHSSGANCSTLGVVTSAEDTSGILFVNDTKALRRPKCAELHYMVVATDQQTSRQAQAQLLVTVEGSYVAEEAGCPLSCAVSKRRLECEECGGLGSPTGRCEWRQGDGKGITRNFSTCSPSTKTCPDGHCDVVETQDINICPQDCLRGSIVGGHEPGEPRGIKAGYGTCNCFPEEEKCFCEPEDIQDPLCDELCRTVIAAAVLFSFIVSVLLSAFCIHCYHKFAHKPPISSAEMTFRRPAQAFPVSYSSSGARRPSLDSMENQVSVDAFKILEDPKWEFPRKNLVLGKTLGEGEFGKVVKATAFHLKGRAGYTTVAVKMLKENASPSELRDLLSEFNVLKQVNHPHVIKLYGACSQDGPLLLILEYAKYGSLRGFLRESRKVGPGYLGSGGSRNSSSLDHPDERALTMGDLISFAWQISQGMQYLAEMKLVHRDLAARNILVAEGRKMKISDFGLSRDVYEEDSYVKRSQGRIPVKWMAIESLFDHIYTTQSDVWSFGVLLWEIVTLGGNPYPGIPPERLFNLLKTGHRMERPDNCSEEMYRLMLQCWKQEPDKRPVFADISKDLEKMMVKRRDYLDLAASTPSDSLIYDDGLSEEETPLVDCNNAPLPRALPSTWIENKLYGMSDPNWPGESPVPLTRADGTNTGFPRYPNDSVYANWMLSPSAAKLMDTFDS

[11] = molecular target: Serine/threonine-protein kinase 35 (Homo sapiens) (UniProt Q8TDR2)
[12] = molecular target: Hepatocyte growth factor receptor (Homo sapiens) (UniProt P08581)
[13] = molecular target: Membrane-associated tyrosine- and threonine-specific cdc2-inhibitory kinase (Homo sapiens) (UniProt Q99640)
[14] = molecular target: Aurora kinase C (Homo sapiens) (UniProt Q9UQB9)
[15] = molecular target: Tyrosine-protein kinase HCK (Homo sapiens) (UniProt P08631)
Sequence of Tyrosine-protein kinase HCK (Homo sapiens) (P08631 2-526 limits assumed): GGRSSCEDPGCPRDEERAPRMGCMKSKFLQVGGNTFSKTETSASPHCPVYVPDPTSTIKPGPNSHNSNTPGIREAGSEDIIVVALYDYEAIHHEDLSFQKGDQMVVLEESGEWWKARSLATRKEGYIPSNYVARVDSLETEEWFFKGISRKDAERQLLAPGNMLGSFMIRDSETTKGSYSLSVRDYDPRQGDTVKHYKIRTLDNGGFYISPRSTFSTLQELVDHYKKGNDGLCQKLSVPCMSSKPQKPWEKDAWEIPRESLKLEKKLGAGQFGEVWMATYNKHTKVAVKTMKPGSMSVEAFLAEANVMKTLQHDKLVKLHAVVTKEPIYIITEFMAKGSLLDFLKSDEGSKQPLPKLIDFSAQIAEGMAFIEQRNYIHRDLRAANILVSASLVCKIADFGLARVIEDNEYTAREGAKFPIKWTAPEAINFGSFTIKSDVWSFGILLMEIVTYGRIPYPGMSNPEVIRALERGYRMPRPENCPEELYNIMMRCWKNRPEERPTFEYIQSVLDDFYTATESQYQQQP

[16] = molecular target: Fibroblast growth factor receptor 1 (Homo sapiens) (UniProt P11362)
[17] = molecular target: Phosphatidylinositol 4,5-bisphosphate 3-kinase catalytic subunit delta isoform (Homo sapiens) (UniProt O00329)
[18] = tested on: Phosphatidylinositol 4,5-bisphosphate 3-kinase catalytic subunit alpha isoform (Homo sapiens), P42336 [E545K]
Sequence of Phosphatidylinositol 4,5-bisphosphate 3-kinase catalytic subunit alpha isoform (Homo sapiens), P42336 [E545K] (P42336 whole entry E545K, canonical isoform): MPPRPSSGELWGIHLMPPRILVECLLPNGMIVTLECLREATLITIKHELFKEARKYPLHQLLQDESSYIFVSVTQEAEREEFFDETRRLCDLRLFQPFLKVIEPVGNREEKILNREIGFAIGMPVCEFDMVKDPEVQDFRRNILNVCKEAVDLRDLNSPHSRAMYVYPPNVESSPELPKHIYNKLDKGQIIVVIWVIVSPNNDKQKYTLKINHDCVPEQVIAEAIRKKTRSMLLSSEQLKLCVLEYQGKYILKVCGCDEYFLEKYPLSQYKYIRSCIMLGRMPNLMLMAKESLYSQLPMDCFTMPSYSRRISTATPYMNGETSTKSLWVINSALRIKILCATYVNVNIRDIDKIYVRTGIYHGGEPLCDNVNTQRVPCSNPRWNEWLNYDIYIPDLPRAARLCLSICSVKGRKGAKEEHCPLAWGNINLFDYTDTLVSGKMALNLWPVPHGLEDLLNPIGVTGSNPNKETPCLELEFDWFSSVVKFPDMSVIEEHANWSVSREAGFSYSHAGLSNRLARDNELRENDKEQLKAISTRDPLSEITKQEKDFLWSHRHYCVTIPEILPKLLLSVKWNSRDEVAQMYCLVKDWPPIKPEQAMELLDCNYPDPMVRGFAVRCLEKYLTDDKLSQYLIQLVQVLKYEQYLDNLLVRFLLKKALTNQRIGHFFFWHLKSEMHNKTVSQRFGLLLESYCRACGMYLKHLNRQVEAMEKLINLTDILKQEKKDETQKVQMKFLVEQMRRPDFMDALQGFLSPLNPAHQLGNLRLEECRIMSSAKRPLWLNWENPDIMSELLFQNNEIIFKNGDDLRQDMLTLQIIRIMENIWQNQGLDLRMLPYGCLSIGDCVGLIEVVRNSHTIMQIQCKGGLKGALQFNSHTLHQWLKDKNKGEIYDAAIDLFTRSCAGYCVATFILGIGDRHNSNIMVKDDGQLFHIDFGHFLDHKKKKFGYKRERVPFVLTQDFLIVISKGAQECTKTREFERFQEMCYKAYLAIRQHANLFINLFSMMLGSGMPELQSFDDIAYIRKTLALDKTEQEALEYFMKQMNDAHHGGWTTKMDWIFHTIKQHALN

[19] = molecular target: Cyclin-dependent kinase 4 (Homo sapiens) (UniProt P11802)
[20] = molecular target: Tyrosine-protein kinase SYK (Homo sapiens) (UniProt P43405)
[21] = molecular target: Serine/threonine-protein kinase Nek2 (Homo sapiens) (UniProt P51955)
Sequence of Serine/threonine-protein kinase Nek2 (Homo sapiens) (P51955 whole entry): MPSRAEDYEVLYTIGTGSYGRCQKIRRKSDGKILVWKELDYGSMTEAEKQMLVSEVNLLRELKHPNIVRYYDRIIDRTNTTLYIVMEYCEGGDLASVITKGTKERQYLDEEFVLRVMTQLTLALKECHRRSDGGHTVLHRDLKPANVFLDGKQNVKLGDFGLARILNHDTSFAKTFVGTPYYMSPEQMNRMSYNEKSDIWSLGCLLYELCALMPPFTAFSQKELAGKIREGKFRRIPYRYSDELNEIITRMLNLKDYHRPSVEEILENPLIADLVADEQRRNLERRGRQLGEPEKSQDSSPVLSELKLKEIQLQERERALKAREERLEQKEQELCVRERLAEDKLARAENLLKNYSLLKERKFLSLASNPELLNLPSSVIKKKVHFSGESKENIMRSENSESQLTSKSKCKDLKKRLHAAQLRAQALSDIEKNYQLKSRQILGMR

[22] = molecular target: Serine/threonine-protein kinase PAK 2 (Homo sapiens) (UniProt Q13177)
[23] = molecular target: Dual specificity mitogen-activated protein kinase kinase 1 (Homo sapiens) (UniProt Q02750)
Sequence of Dual specificity mitogen-activated protein kinase kinase 1 (Homo sapiens) (Q02750 whole entry): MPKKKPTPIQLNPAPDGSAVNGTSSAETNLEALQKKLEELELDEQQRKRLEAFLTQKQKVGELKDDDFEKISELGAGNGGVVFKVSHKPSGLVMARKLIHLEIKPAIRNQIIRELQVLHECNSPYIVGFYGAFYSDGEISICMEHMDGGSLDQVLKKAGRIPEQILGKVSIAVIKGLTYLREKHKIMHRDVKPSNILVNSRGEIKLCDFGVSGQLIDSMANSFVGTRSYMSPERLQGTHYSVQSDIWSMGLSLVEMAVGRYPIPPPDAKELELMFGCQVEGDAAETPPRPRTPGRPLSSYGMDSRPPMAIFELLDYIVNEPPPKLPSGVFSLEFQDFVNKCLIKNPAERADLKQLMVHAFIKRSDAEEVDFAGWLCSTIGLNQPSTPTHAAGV

[24] = molecular target: Mitogen-activated protein kinase 13 (Homo sapiens) (UniProt O15264)
Sequence of Mitogen-activated protein kinase 13 (Homo sapiens) (O15264 whole entry, canonical isoform): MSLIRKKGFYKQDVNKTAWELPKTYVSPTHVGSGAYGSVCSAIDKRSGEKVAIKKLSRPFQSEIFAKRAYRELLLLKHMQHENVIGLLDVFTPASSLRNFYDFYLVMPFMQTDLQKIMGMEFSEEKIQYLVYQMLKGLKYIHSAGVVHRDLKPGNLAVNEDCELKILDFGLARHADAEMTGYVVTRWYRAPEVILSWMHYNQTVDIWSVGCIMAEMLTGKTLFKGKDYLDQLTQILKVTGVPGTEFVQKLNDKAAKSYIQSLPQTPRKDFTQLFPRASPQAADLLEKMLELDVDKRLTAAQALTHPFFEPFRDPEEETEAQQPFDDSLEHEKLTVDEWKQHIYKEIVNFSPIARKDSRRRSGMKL

[25] = molecular target: Phosphatidylinositol 4,5-bisphosphate 3-kinase catalytic subunit gamma isoform (Homo sapiens) (UniProt P48736)
[26] = molecular target: Calcium/calmodulin-dependent protein kinase type 1D (Homo sapiens) (UniProt Q8IU85)
Sequence of Calcium/calmodulin-dependent protein kinase type 1D (Homo sapiens) (Q8IU85 whole entry, looked up): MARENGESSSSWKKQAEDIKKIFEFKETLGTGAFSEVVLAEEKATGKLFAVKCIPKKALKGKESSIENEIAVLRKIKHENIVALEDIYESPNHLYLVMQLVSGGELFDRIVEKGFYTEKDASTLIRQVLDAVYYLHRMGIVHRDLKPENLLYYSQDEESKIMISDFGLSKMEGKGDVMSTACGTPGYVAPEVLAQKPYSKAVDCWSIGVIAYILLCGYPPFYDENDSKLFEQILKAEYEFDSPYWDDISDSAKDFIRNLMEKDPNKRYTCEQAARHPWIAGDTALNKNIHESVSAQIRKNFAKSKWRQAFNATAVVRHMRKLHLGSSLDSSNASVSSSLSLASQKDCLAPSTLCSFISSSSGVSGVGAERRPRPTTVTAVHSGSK

[27] = Compound concentration 100.0 nM
[28] = Compound concentration 1000.0 nM

CNC(=O)c1ccc(Nc2ncc(C(F)(F)F)c(NCc3nccnc3N(C)S(C)(=O)=O)n2)cc1 [DEFACTINIB]
residual activity [1, 27]: 100% | residual activity [2, 27]: 88% | residual activity [3, 27]: 82% | residual activity [4, 27]: 100% | residual activity [5, 27]: 75% | residual activity [6, 27]: 100% | residual activity [7, 27]: 82% | residual activity [8, 27]: 50% | residual activity [9, 27]: 91% | residual activity [10, 27]: 30% | residual activity [11, 27]: 100% | residual activity [12, 27]: 66% | residual activity [13, 27]: 94% | residual activity [14, 27]: 47% | residual activity [15, 27]: 100% | residual activity [16, 27]: 89% | residual activity [17, 27]: 90% | residual activity [18, 27]: 100% | residual activity [19, 27]: 100% | residual activity [20, 27]: 66% | residual activity [21, 27]: 75% | residual activity [22, 27]: 72% | residual activity [23, 27]: 100% | residual activity [24, 27]: 91% | residual activity [25, 27]: 100% | residual activity [26, 27]: 100%

CN(c1ccnc(CNc2nc(Nc3ccc4c(c3)CC(=O)N4)ncc2C(F)(F)F)n1)S(C)(=O)=O [PF-00911705]
residual activity [1, 28]: 62% | residual activity [2, 28]: 84% | residual activity [3, 28]: 100% | residual activity [4, 28]: 45% | residual activity [5, 28]: 33% | residual activity [6, 28]: 93% | residual activity [7, 28]: 25% | residual activity [8, 28]: 14% | residual activity [9, 28]: 56% | residual activity [10, 28]: 21% | residual activity [11, 28]: 86% | residual activity [12, 28]: 14% | residual activity [13, 28]: 100% | residual activity [14, 28]: 14% | residual activity [15, 28]: 100% | residual activity [16, 28]: 82% | residual activity [17, 28]: 77% | residual activity [18, 28]: 100% | residual activity [19, 28]: 100% | residual activity [20, 28]: 5.7% | residual activity [21, 28]: 83% | residual activity [22, 28]: 83% | residual activity [23, 28]: 85% | residual activity [24, 28]: 100% | residual activity [25, 28]: 100% | residual activity [26, 28]: 79%
